Results: patent publication US20250188110A1, “SPECIFIC SMALL MOLECULE INHIBITORS THAT BLOCK KMT9 METHYLTRANSFERASE ACTIVITY AND FUNCTION” (ALBERT-LUDWIGS-UNIVERSITÄT FREIBURG, priority 2021, published 2025)
pIC50, pKd: −log10 of the molar value. Like-named read-outs stand apart in the source and are kept apart here.

How the values were obtained:
KMT9 [1] = biological target: T1, KMT9 (Homo sapiens, UniProt Q9Y5N5); test: KMT9 thermal shift assay (SyproOrange); type: binding
T1 sequence (Q9Y5N5 1-214): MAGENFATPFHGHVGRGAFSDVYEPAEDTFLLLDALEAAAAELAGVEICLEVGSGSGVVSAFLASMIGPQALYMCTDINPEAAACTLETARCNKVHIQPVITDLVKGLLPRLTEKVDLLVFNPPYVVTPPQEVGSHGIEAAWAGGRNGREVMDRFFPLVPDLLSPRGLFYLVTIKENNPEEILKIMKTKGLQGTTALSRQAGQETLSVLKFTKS
T1 sequence (Q9UI30 1-120 isoform Q9UI30-2 partner): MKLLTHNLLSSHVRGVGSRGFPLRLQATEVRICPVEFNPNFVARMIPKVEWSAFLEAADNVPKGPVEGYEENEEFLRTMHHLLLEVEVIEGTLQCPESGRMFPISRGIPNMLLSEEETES
Outline: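 ΔTm versus DMSO-only control is reported in bins (>20 K, 15–20 K, 10–15 K, ≤10 K), using Tm from Boltzmann sigmoidal fits of SyproOrange melt curves. KMT9 with compound in pH 8.5 BTP buffer containing MgCl2 and DTT was preincubated at 25° C, then ramped 1° C per 15 s up to 95° C.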

KMT9 [2] = biological target: T1, KMT9; test: KMT9 methyltransferase inhibition assay, MTaseGlo luminescence (from entry 155); type: biochemical; conditions: 100 nM KMT9, 5 μM ETF1, 1 μM SAM
Experimental: For the compounds from entry 155 on in Table 1, the following procedure was used to determine IC50 values: The assay was carried out in white, opaque 384-well OptiPlates (PerkinElmer). For IC50 determination, a 2.5x substrate mix (final assay concentrations: 5 μM ETF1, 1 μM SAM and 1x MTaseGlo Reagent), a 2.5x KMT9 solution (final assay concentration 100 nM) and a 5x inhibitor stock 1:1 dilution series (concentration according to the desired range; dilution series was prepared in assay buffer containing 10% DMSO to obtain a final DMSO concentration of 2% in the assay) were prepared. 2 μL of 5x inhibitor stock and 4 μL of 2.5x KMT9 were pipetted, the plate was spun down at 700 rpm for 1 min using a Hettich UNIVERSAL 320 centrifuge and incubated at room temperature (around 25° C.) for 15 min. The reaction was initiated by adding 4 μL of 2.5x substrate mix, the plate was spun down as described before and incubated at 30° C. for 2 h. Afterwards, 10 μL of 2× MTaseGlo Detection solution was added, the plate was centrifuged as described above and incubated for 60 min at room temperature. Luminescence was measured using a PerkinElmer EnVision 2102 Multilabel Reader. Calculation of inhibition and data fitting was carried out as for entries 1-154. described above.
For the results of the methyltransferase inhibition assay shown as “Inhibition” in Table 1, “I” represents an IC50 less than 0.1 μM, “II” represents an IC50 equal or higher than 0.1 μM and less than 1 μM, “III” represents an IC50 equal or higher than 1 µM and less than 10 µM and “IV” represents an IC50 equal or higher than 10 µM

KMT9 [3] = biological target: T1, KMT9; test: Microscale thermophoresis (MST) KMT9 binding
Outline: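 Kd from microscale thermophoresis: compound series against 20 nM His-KMT9 labelled via RED-Tris-NTA, buffer 25 mM HEPES (pH 7.5)/100 mM NaCl/1 mM DTT/0.05% Tween, 40% MST power, 100% LED. Reported as classes: A ≤10 nM, B >10–100 nM, C >100–1000 nM, D >1000 nM.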

[4] = 500 µM compound, 2 μM KMT9, read-out: Thermal shift (ΔTm)
[5] = MTaseGlo procedure (entries from 155), read-out: Inhibition (IC50)
[6] = His-tag labelled KMT9 20 nM, read-out: MST (Kd)
[7] = ΔTm, 500 µM compound, 2 μM KMT9, 5X SO, read-out: Thermal shift
[8] = from entry 155: MTaseGlo assay, read-out: Inhibition
[9] = microscale thermophoresis, His-tag labelled KMT9 (20 nM), read-out: MST
[10] = ΔTm class, 500 uM compound, 2 μM KMT9, read-out: Thermal shift
[11] = IC50 class, MTaseGlo procedure (entries from 155 on), read-out: Inhibition
[12] = His-tag labelled KMT9 20 nM, Kd class, read-out: MST

Compound | ΔTm at 500 µM (KMT9 [1]; [7]) [°C] | pIC50 (KMT9 [2]; [8]) | pKd (KMT9 [3]; [9]) | further results
Nc1nc(Cl)nc2c1c(-c1nccs1)cn2[C@@H]1CC(CN(CCCNCCc2ccc(F)cc2)c2cn[nH]c2)[C@@H](O)[C@H]1O (single isomer, unassigned) [Compound 543] |  |  |  | ΔTm at 500 µM (KMT9 [1]; [4]): > 20 °C; pIC50 (KMT9 [2]; [5]): 6.00 to 7.00; pKd (KMT9 [3]; [6]): ≥ 8.00
Nc1ncnc2c1c(-c1nc(Cc3ccccc3)cs1)cn2[C@@H]1C[C@H]([C@@H]2CCCNC2)[C@@H](O)[C@H]1O (single isomer, unassigned) [Compound 593R] | 15 to 20 | 5.00 to 6.00 | 6.00 to 7.00 | 
Nc1ncnc2c1c(-c1nc(Cc3ccccc3)cs1)cn2[C@@H]1C[C@H]([C@H]2CCCNC2)[C@@H](O)[C@H]1O (single isomer, unassigned) [Compound 593S] | 10 to 15 | 5.00 to 6.00 | 6.00 to 7.00 | 
CCc1cn([C@@H]2C[C@H](CNCCCNCCc3ccc(C(F)(F)F)cc3)[C@@H](O)[C@H]2O)c2ncnc(N)c12 [Compound 379, (1R,2S,3R,5R)-3-(4-amino-5-ethyl-7H-pyrrolo[2,3-d]pyrimidin-7-yl)-5-(((3-((4-(trifluoromethyl)phenethyl)amino)propyl)amino)methyl) cyclopentane-1,2-diol] | 10 to 15 | 5.00 to 6.00 | 6.00 to 7.00 | 
CCc1cn([C@@H]2C[C@H](CNCCCNCCc3ccc(F)cc3)[C@@H](O)[C@H]2O)c2ncnc(N)c12 [Compound 381, (1R,2S,3R,5R)-3-(4-amino-5-ethyl-7H-pyrrolo[2,3-d]pyrimidin-7-yl)-5-(((3-((4-fluorophenethyl)amino)propyl)amino)methyl) cyclopentane-1,2-diol] | 10 to 15 | 5.00 to 6.00 | 6.00 to 7.00 | 
CCc1cn([C@@H]2C[C@H](CNCCCNCCc3ccc(F)cc3F)[C@@H](O)[C@H]2O)c2ncnc(N)c12 [Compound 383, (1R,2S,3R,5R)-3-(4-amino-5-ethyl-7H-pyrrolo[2,3-d]pyrimidin-7-yl)-5-(((3-((2,4-difluorophenethyl)amino)propyl)amino)methyl) cyclopentane-1,2-diol] | 10 to 15 | 5.00 to 6.00 | 7.00 to 8.00 | 
Nc1ncnc2c1ccn2[C@@H]1C[C@H](c2cc(Cl)cc(Cl)c2)[C@@H](O)[C@H]1O [Compound 384, (1R,2S,3R,5R)-3-(4-amino-7H-pyrrolo[2,3-a]pyrimidin-7-yl)-5-(3,5-dichlorophenyl) cyclopentane-1,2-diol] | ≤ 10 | < 5.00 | < 6.00 | 
Nc1ncnc2c1ccn2[C@@H]1C[C@H](c2ccccc2)[C@@H](O)[C@H]1O [Compound 385, (1R,2S,3R,5R)-3-(4-amino-7H-pyrrolo[2,3-d]pyrimidin-7-yl)-5-phenylcyclopentane-1,2-diol] | ≤ 10 | < 5.00 | < 6.00 | 
Nc1ncnc2c1c(Br)cn2[C@@H]1C[C@H](c2ccccc2)[C@@H](O)[C@H]1O [Compound 386, (1R,2S,3R,5R)-3-(4-amino-5-bromo-7H-pyrrolo[2,3-a]pyrimidin-7-yl)-5-phenylcyclopentane-1,2-diol] |  |  |  | ΔTm at 500 µM (KMT9 [1]; [10]): ≤ 10 °C; pIC50 (KMT9 [2]; [11]): < 5.00; pKd (KMT9 [3]; [12]): < 6.00
Nc1ncnc2c1ccn2[C@@H]1C[C@H](c2ccc3ccccc3c2)[C@@H](O)[C@H]1O [Compound 387, (1R,2S,3R,5R)-3-(4-amino-7H-pyrrolo[2,3-d]pyrimidin-7-yl)-5-(naphthalen-2-yl) cyclopentane-1,2-diol] | ≤ 10 | < 5.00 | < 6.00 | 
Nc1ncnc2c1ccn2[C@@H]1C[C@H](c2ccncc2)[C@@H](O)[C@H]1O [Compound 389, (1R,2S,3R,5R)-3-(4-amino-7H-pyrrolo[2,3-d]pyrimidin-7-yl)-5-(pyridin-4-yl) cyclopentane-1,2-diol] | ≤ 10 | < 5.00 | < 6.00 | 
Nc1ncnc2c1ccn2[C@@H]1C[C@H](c2cccs2)[C@@H](O)[C@H]1O [Compound 390, (1R,2S,3R,5S)-3-(4-amino-7H-pyrrolo[2,3-a]pyrimidin-7-yl)-5-(thiophen-2-yl) cyclopentane-1,2-diol] | ≤ 10 | < 5.00 | < 6.00 | 
Nc1ncnc2c1ccn2[C@@H]1C[C@H](c2ccn[nH]2)[C@@H](O)[C@H]1O [Compound 391, (1R,2S,3R,5R)-3-(4-amino-7H-pyrrolo[2,3-d]pyrimidin-7-yl)-5-(1H-pyrazol-5-yl) cyclopentane-1,2-diol] |  |  |  | ΔTm at 500 µM (KMT9 [1]; [10]): ≤ 10 °C; pIC50 (KMT9 [2]; [11]): < 5.00; pKd (KMT9 [3]; [12]): < 6.00
NCc1cccc([C@H]2C[C@@H](n3cc(Br)c4c(N)nc(Cl)nc43)[C@H](O)[C@@H]2O)c1 [Compound 393, (1R,2S,3R,5R)-3-(4-amino-5-bromo-2-chloro-7H-pyrrolo[2,3-d]pyrimidin-7-yl)-5-(3-(aminomethyl)phen-yl) cyclopentane-1,2-diol] |  |  |  | ΔTm at 500 µM (KMT9 [1]; [4]): 15 to 20 °C; pIC50 (KMT9 [2]; [5]): 6.00 to 7.00; pKd (KMT9 [3]; [6]): ≥ 8.00
Nc1ncnc2c1c(-c1nccs1)cn2[C@@H]1C[C@H](c2cc(Cl)cc(Cl)c2)[C@@H](O)[C@H]1O [Compound 394, (1R,2S,3R,5R)-3-(4-amino-5-(thiazol-2-yl)-7H-pyrrolo[2,3-d]pyrimidin-7-yl)-5-(3,5-dichlorophenyl) cyclo-pentane-1,2-diol] | ≤ 10 | < 5.00 | < 6.00 | 
Nc1ncnc2c1c(-c1nccs1)cn2[C@@H]1C[C@H](c2ccccc2)[C@@H](O)[C@H]1O [Compound 395, (1R,2S,3R,5R)-3-(4-amino-5-(thiazol-2-yl)-7H-pyrrolo[2,3-d]pyrimidin-7-yl)-5-phenylcyclopentane-1,2-diol] | ≤ 10 | < 5.00 | < 6.00 | 
CCc1cn([C@@H]2C[C@H](c3ccccc3)[C@@H](O)[C@H]2O)c2ncnc(N)c12 [Compound 396, (1R,2S,3R,5R)-3-(4-amino-5-ethyl-7H-pyrrolo[2,3-d]pyrimidin-7-yl)-5-phenylcyclopentane-1,2-diol] |  |  |  | ΔTm at 500 µM (KMT9 [1]; [10]): ≤ 10 °C; pIC50 (KMT9 [2]; [11]): < 5.00; pKd (KMT9 [3]; [12]): < 6.00
Nc1ncnc2c1ccn2[C@@H]1C[C@H]([C@H]2CCCN2)[C@@H](O)[C@H]1O [Compound 398, (1R,2S,3R,5R)-3-(4-amino-7H-pyrrolo[2,3-d]pyrimidin-7-yl)-5-((R)-pyrrolidin-2-yl) cyclopentane-1,2-diol] |  |  |  | ΔTm at 500 µM (KMT9 [1]; [4]): ≤ 10 °C; pIC50 (KMT9 [2]; [5]): < 5.00; pKd (KMT9 [3]; [6]): < 6.00
Nc1ncnc2c1ccn2[C@@H]1C[C@H]([C@@H]2CCCN2)[C@@H](O)[C@H]1O [Compound 399, (1R,2S,3R,5R)-3-(4-amino-7H-pyrrolo[2,3-a]pyrimidin-7-yl)-5-((S)-pyrrolidin-2-yl) cyclopentane-1,2-diol] |  |  |  | ΔTm at 500 µM (KMT9 [1]; [4]): ≤ 10 °C; pIC50 (KMT9 [2]; [5]): < 5.00; pKd (KMT9 [3]; [6]): < 6.00
Nc1ncnc2c1ccn2[C@@H]1C[C@H](c2cccc(O)c2)[C@@H](O)[C@H]1O [Compound 404, (1R,2S,3R,5R)-3-(4-amino-7H-pyrrolo[2,3-d]pyrimidin-7-yl)-5-(3-hydroxyphenyl) cyclopentane-1,2-diol] |  |  |  | ΔTm at 500 µM (KMT9 [1]; [10]): ≤ 10 °C; pIC50 (KMT9 [2]; [11]): < 5.00; pKd (KMT9 [3]; [12]): < 6.00
Nc1ncnc2c1ccn2[C@@H]1C[C@H](c2ccc(O)cc2)[C@@H](O)[C@H]1O [Compound 405, (1R,2S,3R,5R)-3-(4-amino-7H-pyrrolo[2,3-d]pyrimidin-7-yl)-5-(4-hydroxyphenyl) cyclopentane-1,2-diol] |  |  |  | ΔTm at 500 µM (KMT9 [1]; [10]): 10 to 15 °C; pIC50 (KMT9 [2]; [11]): < 5.00; pKd (KMT9 [3]; [12]): < 6.00
